These results are taken from patent publication US8017611B2, “Pyridine and pyrazine derivatives -083” (AstraZeneca AB, priority 2007, dated 2011).

The first test has as its target T1, recombinant Axl tyrosine kinase (Homo sapiens, UniProt P30530).
T1 construct: encompassing amino acids 473 to 894 of Axl; GST (N); made in house; host or cells: SF126 insect cells
T1 sequence (P30530 473-894): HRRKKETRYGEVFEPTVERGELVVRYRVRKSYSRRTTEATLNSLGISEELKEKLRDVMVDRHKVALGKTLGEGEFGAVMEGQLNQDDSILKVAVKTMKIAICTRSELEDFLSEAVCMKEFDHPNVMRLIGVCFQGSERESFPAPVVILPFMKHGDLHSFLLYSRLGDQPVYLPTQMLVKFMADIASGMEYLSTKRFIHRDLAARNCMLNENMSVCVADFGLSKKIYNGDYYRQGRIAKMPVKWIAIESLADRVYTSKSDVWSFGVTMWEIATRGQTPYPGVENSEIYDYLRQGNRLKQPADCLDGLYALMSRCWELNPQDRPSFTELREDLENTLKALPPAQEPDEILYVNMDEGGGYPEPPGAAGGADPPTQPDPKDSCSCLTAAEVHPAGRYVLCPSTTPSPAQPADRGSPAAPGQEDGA
Description: In vitro Axl kinase assay (AlphaScreen), Test (a). Format: biochemical. The settings on record: test compound at 1 μM; first value quoted. For orientation: Alpha assays give light when donor and acceptor beads are brought close together.
`CN(C)C(=O)CN1CCC(n2cc(-c3cnc(N)c(-c4nc5ncccc5o4)c3)cn2)CC1` [Example 53.1]: the “% Axl tyrosine kinase inhibition at 1 μM concentration” value (shortened to “% Axl tyrosine kinase inhibition”) amounted to 99.7%.
As for `CNC(=O)CN1CCC(n2cc(-c3cnc(N)c(-c4nc5ncccc5o4)c3)cn2)CC1` [Example 53.2], the “% Axl tyrosine kinase inhibition” value is on record as 97.8%.
On to `NC(=O)CN1CCC(n2cc(-c3cnc(N)c(-c4nc5ncccc5o4)c3)cn2)CC1` [Example 53.3], for which the “% Axl tyrosine kinase inhibition” value was 98.8%.
For the molecule `CC(C)N1CCC(n2cc(-c3cnc(N)c(-c4nc5ncccc5o4)c3)cn2)CC1` [Example 53.4], the “% Axl tyrosine kinase inhibition” value was determined as 99.2%.
As to `Nc1ncc(-c2cnn(C3CCN(CCO)CC3)c2)cc1-c1nc2ncccc2o1` [Example 53.5], the “% Axl tyrosine kinase inhibition” value turned out to be 100.0%.
Turning to `NC(=O)CN1CCC(n2cc(-c3cnc(N)c(-c4nc5ccccc5o4)c3)cn2)CC1` [Example 53.6], the “% Axl tyrosine kinase inhibition” value is given as 100.0%.
Turning to `CN(C)C(=O)CN1CCC(n2cc(-c3cnc(N)c(-c4nc5ccccc5o4)c3)cn2)CC1` [Example 53.8], the “% Axl tyrosine kinase inhibition” value is recorded as 99.9%.
On the same count and under the same terms, to `CS(=O)(=O)N1CCC(n2cc(-c3cnc(N)c(-c4nc5ncccc5o4)c3)cn2)CC1` [Example 55.1] belongs 99.0%; to `Nc1ncc(-c2cnn(C3CCN(S(=O)(=O)C4CC4)CC3)c2)cc1-c1nc2ncccc2o1` [Example 55.2], 98.8%.
On the same count and under the same terms, to `COC(=O)N1CCC(n2cc(-c3cnc(N)c(-c4nc5ncccc5o4)c3)cn2)CC1` [Example 55.3] belongs 99.5%; to `CC(=O)N1CCC(n2cc(-c3cnc(N)c(-c4nc5ncccc5o4)c3)cn2)CC1` [Example 57.1], 98.5%; to `Nc1ncc(-c2cnn(C3CCN(C(=O)CO)CC3)c2)cc1-c1nc2ncccc2o1` [Example 57.2], 99.4%.
Regarding `C[C@H](O)C(=O)N1CCC(n2cc(-c3cnc(N)c(-c4nc5ncccc5o4)c3)cn2)CC1` [Example 57.3], the “% Axl tyrosine kinase inhibition” value is recorded as 98.7%.
Turning to `CC(=O)N1CCC(n2cc(-c3cnc(N)c(-c4nc5cccnc5o4)c3)cn2)CC1` [Example 57.4], the “% Axl tyrosine kinase inhibition” value is 99.3%.
Turning to `COCC(=O)N1CCC(n2cc(-c3cnc(N)c(-c4nc5cccnc5o4)c3)cn2)CC1` [Example 57.5], the “% Axl tyrosine kinase inhibition” value is recorded as 99.8%.
Regarding `Nc1ncc(-c2cnn(C3CCN(C(=O)CO)CC3)c2)cc1-c1nc2cccnc2o1` [Example 57.6], the “% Axl tyrosine kinase inhibition” value was 99.8%.
For `C[C@H](O)C(=O)N1CCC(n2cc(-c3cnc(N)c(-c4nc5cccnc5o4)c3)cn2)CC1` [Example 57.7], the “% Axl tyrosine kinase inhibition” value is given as 99.6%.
Take `COCCC(=O)N1CCC(n2cc(-c3cnc(N)c(-c4nc5ncccc5o4)c3)cn2)CC1` [Example 59.1]: the “% Axl tyrosine kinase inhibition” value was 99.3%.
Regarding `CO[C@H](C)C(=O)N1CCC(n2cc(-c3cnc(N)c(-c4nc5ncccc5o4)c3)cn2)CC1` [Example 59.2], the “% Axl tyrosine kinase inhibition” value is reported as 98.1%.
Take `CC(=O)NCC(=O)N1CCC(n2cc(-c3cnc(N)c(-c4nc5ncccc5o4)c3)cn2)CC1` [Example 59.3]: the “% Axl tyrosine kinase inhibition” value came out at 98.9%.
The same measure, in the same setting: to `CC(=O)NCCC(=O)N1CCC(n2cc(-c3cnc(N)c(-c4nc5ncccc5o4)c3)cn2)CC1` [Example 59.4] belongs 98.9%.
Regarding `COCCOCC(=O)N1CCC(n2cc(-c3cnc(N)c(-c4nc5ncccc5o4)c3)cn2)CC1` [Example 59.5], the “% Axl tyrosine kinase inhibition” value is 99.7%.
For the molecule `CN(C)CCC(=O)N1CCC(n2cc(-c3cnc(N)c(-c4nc5ncccc5o4)c3)cn2)CC1` [Example 59.6], the “% Axl tyrosine kinase inhibition” value is on record as 99.9%.
On to `CN(C)CC(=O)N1CCC(n2cc(-c3cnc(N)c(-c4nc5cccnc5o4)c3)cn2)CC1` [Example 59.7], for which the “% Axl tyrosine kinase inhibition” value is reported as 99.6%.
`COCCC(=O)N1CCC(n2cc(-c3cnc(N)c(-c4nc5cccnc5o4)c3)cn2)CC1` [Example 59.8]: the “% Axl tyrosine kinase inhibition” value is recorded as 98.2%.
In the case of `CO[C@H](C)C(=O)N1CCC(n2cc(-c3cnc(N)c(-c4nc5cccnc5o4)c3)cn2)CC1` [Example 59.9], the “% Axl tyrosine kinase inhibition” value amounted to 99.1%.
With `CC(=O)NCCC(=O)N1CCC(n2cc(-c3cnc(N)c(-c4nc5cccnc5o4)c3)cn2)CC1` [Example 59.11], the “% Axl tyrosine kinase inhibition” value is 99.0%.
Regarding `CN(C)CCC(=O)N1CCC(n2cc(-c3cnc(N)c(-c4nc5cccnc5o4)c3)cn2)CC1` [Example 59.13], the “% Axl tyrosine kinase inhibition” value is listed as 99.7%.
On to `N#Cc1nn(C2CCNCC2)cc1-c1cnc(N)c(-c2nc3ccccc3o2)c1` [Example 62.1], for which the “% Axl tyrosine kinase inhibition” value is on record as 100.0%.
With `CN(C)C(=O)c1nn(C2CCNCC2)cc1-c1cnc(N)c(-c2nc3ccccc3o2)c1` [Example 62.2], the “% Axl tyrosine kinase inhibition” value is 98.8%.
For `CN(C)c1nn(C2CCNCC2)cc1-c1cnc(N)c(-c2nc3ccccc3o2)c1` [Example 62.3], the “% Axl tyrosine kinase inhibition” value is on record as 99.9%.
As to `CNC(=O)c1nn(C2CCNCC2)cc1-c1cnc(N)c(-c2nc3ccccc3o2)c1` [Example 62.4], the “% Axl tyrosine kinase inhibition” value is 99.8%.
For the molecule `NC(=O)c1nn(C2CCNCC2)cc1-c1cnc(N)c(-c2nc3ccccc3o2)c1` [Example 62.5], the “% Axl tyrosine kinase inhibition” value turned out to be 99.5%.
As to `Nc1ncc(-c2cn(C3CCNCC3)nc2CO)cc1-c1nc2c(F)cccc2o1` [Example 62.6], the “% Axl tyrosine kinase inhibition” value amounted to 100.0%.
Regarding `COCc1nn(C2CCNCC2)cc1-c1cnc(N)c(-c2nc3c(F)cccc3o2)c1` [Example 62.7], the “% Axl tyrosine kinase inhibition” value is 100.0%.

The same test, now with this note: test compound at 1 μM; first value quoted; read-out: % Axl tyrosine kinase inhibition at 1 μM concentration.
Take `COCCOC(=O)N1CCC(n2cc(-c3cnc(N)c(-c4nc5ncccc5o4)c3)cn2)CC1` [Example 54, 2-methoxyethyl 4-[4-(6-amino-5-oxazolo[4,5-b]pyridin-2-yl-3-pyridyl)pyrazol-1-yl]piperidine-1-carboxylate]: the inhibition at 1 µM was determined as 99.5%.
In the case of `COCC(=O)N1CCC(n2cc(-c3cnc(N)c(-c4nc5ncccc5o4)c3)cn2)CC1` [Example 56, 1-[4-[4-(6-amino-5-oxazolo[4,5-b]pyridin-2-yl-3-pyridyl)pyrazol-1-yl]-1-piperidyl]-2-methoxy-ethanone], the inhibition at 1 µM worked out at 99.3%.
On to `CN(C)CC(=O)N1CCC(n2cc(-c3cnc(N)c(-c4nc5ncccc5o4)c3)cn2)CC1` [Example 58, 1-[4-[4-(6-amino-5-oxazolo[4,5-b]pyridin-2-yl-3-pyridyl)pyrazol-1-yl]-1-piperidyl]-2-dimethylamino-ethanone], for which the inhibition at 1 µM stood at 99.5%.
Take `CC(O)c1nn(C2CCNCC2)cc1-c1cnc(N)c(-c2nc3ccccc3o2)c1` (stereo not shown) [Example 60, 1-[4-[6-amino-5-(1,3-benzoxazol-2-yl)-3-pyridyl]-1-(4-piperidyl)pyrazol-3-yl]ethanol]: the inhibition at 1 µM is 99.8%.
On the same count and under the same terms, to `Nc1ncc(-c2cnn(C3CCNCC3)c2CO)cc1-c1nc2ccccc2o1` [Example 61, [4-[6-amino-5-(1,3-benzoxazol-2-yl)-3-pyridyl]-2-(4-piperidyl)pyrazol-3-yl]methanol] belongs 99.9%.
